Measured values as given in US20070037823A1, “Substituted piperidine and piperazine derivatives as melanocortin-4 receptor modulators” (priority 2003, published 2007).

Experiments:
hMC4-R [1] = molecular target: T1, hMC4-R (Homo sapiens, UniProt P32245); experiment: Functional cellular cAMP assay in HEK293 cells (fluorescence polarization); type: cell-based; settings: for % activation functional assay: cAMP compared to stimulation with NDP-alpha-MSH; for EC50: HEK293 cells, cAMP production
T1 construct: expressed in transfected cells; host or cells: HEK293 cells
T1 sequence (P32245 whole entry): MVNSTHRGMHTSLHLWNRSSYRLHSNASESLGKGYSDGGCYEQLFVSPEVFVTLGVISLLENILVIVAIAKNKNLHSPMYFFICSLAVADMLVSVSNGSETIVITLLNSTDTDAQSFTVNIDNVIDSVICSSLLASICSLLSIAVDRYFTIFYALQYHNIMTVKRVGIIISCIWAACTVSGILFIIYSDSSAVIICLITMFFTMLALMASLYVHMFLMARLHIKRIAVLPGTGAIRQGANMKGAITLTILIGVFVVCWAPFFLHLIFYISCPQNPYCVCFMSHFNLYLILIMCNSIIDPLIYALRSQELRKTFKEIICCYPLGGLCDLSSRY
Protocol: A functional cellular assay, based on competition between unlabeled cAMP and a fixed quantity of fluorescence labeled cAMP for a limited number of binding sites on a cAMP specific antibody, is used to discriminate melanocortin receptor agonists from antagonists by fluorescence polarization.
HEK293 cells expressing one of the human melanocortin receptors are transferred to 384 well microtiter plates, an appropriate amount of cAMP antibody is added, followed by the addition of different concentrations of the test compound to effect cAMP production. Cells are lysed and a fluorescence labeled cAMP conjugate is dispensed. The plate is read on a fluorescence polarization microplate reader and the amount of cAMP produced as a response to a test compound is compared to the production of CAMP resulting from stimulation with NDP-alpha-MSH. […]

hMC4-R [2] = molecular target: T1, hMC4-R; experiment: Membrane binding assay, fluorescence labeled NDP-alpha-MSH competition (fluorescence polarization); settings: HEK293 cell membrane preparations
Protocol: A membrane binding assay is used to identify competitive inhibitors of fluorescence labeled NDP-alpha-MSH binding to HEK293 cell membrane preparations expressing human melanocortin receptors.
The test compound or unlabeled NDP-alpha-MSH is dispensed at varying concentrations to a 384 well microtiter plate. Fluorescence labeled NDP-alpha-MSH is dispensed at a single concentration, followed by addition of membrane preparations. The plate is incubated for 5 h at room temperature.
The degree of fluorescence polarization is determined with a fluorescence polarization microplate reader.

male Wistar rats = experiment: Spontaneous feeding paradigm (food intake); type: in vivo, rat; settings: 10 mg/kg p.o.; for increase in cumulative food intake: compared to vehicle control
Protocol: Food intake in rats is measured after i.p. or p.o. administration of the test compound (see e.g. Chen, A. S. et al. Transgenic Res April 2000; 9(2):145-54).
3-4 Hours following the onset of the light-phase, individually housed, male Wistar rats (200-300 g) receive an ip injection or po application of test compound or vehicle in an administration volume of 2 ml/kg. Following the administration of substances (1-30 mg/kg), a pre-weighed amount of normal laboratory chow is placed into the food hopper. Food remaining is measured by hand at 1-2 hour intervals for up to 8 hours. Differences in food intake between test-compound and vehicle-treated rats are evaluated.

[3] = 2 hours following administration
[4] = 4 hours following administration

SMILES: CC(C)(C)NC(=O)C1(C2CCCCC2)CCN(C[C@H](Cc2ccc(Cl)cc2)NC(=O)c2cc(=O)c3ccccc3o2)CC1 [Example 28]
- % activation functional assay (hMC4-R [1]): no activation
- IC50 (hMC4-R [2]): 2.3 µM

SMILES: CC(C)(C)NC(=O)C1(C2CCCCC2)CCN(CC[C@@H](Cc2ccc(Cl)cc2)NC(=O)[C@H]2Cc3ccccc3CN2)CC1.Cl [Example 5]
- EC50 (hMC4-R [1]): 8 µM
- % activation functional assay (hMC4-R [1]): 52%
- IC50 (hMC4-R [2]): 2.5 µM

SMILES: CC(C)(C)NC(=O)C1(C2CCCCC2)CCN(C[C@@H](Cc2ccc(Cl)cc2)NC(=O)[C@@H]2Cc3ccccc3CN2)CC1.Cl [Example 3]
- % activation functional assay (hMC4-R [1]): no activation
- IC50 (hMC4-R [2]): 0.42 µM

SMILES: CC(C)(C)NC(=O)C1(C2CCCCC2)CCN(CC[C@@H](Cc2ccc(Cl)cc2)NC(=O)c2cc(=O)c3ccccc3o2)CC1 [Example 30]
- % activation functional assay (hMC4-R [1]): no activation
- IC50 (hMC4-R [2]): 2.1 µM

SMILES: CC(C)(C)NC(=O)C1(C2CCCCC2)CCN(C[C@@H](Cc2ccc(Cl)cc2)NC(=O)c2cc(=O)c3ccccc3o2)CC1 [Example 29]
- % activation functional assay (hMC4-R [1]): no activation
- IC50 (hMC4-R [2]): 2.6 µM

SMILES: CC(C)(C)NC(=O)C1(C2CCCCC2)CCN(C[C@H](Cc2ccc(Cl)cc2)NC(=O)[C@H]2Cc3ccccc3CN2)CC1.Cl [Example 1]
- activity in the spontaneous feeding paradigm (increase in food intake) (male Wistar rats): active
- increase in cumulative food intake (male Wistar rats; [3]): 2700%
- increase in cumulative food intake (male Wistar rats; [4]): 700%
- increase in cumulative food intake (male Wistar rats; 6 hours following administration): 175%
- % activation functional assay (hMC4-R [1]): no activation
- IC50 (hMC4-R [2]): 0.7 µM

SMILES: CC(C)(C)NC(=O)C1(C2CCCCC2)CCN(CC[C@H](Cc2ccc(Cl)cc2)NC(=O)[C@H]2Cc3ccccc3CN2)CC1.Cl [Example 6]
- % activation functional assay (hMC4-R [1]): no activation
- IC50 (hMC4-R [2]): 1 µM

SMILES: CC(C)(C)NC(=O)C1(C2CCCCC2)CCN(CC[C@H](Cc2ccc(Cl)cc2)NC(=O)c2cc(=O)c3ccccc3o2)CC1 [Example 31]
- activity in the spontaneous feeding paradigm (increase in food intake) (male Wistar rats): active
- increase in cumulative food intake (male Wistar rats; [3]): 1100%
- increase in cumulative food intake (male Wistar rats; [4]): 380%
- % activation functional assay (hMC4-R [1]): no activation
- IC50 (hMC4-R [2]): 0.061 µM

SMILES: CC(C)(C)NC(=O)C1(C2CCCCC2)CCN(C[C@@H](Cc2ccc(Cl)cc2)NC(=O)[C@H]2Cc3ccccc3CN2)CC1.Cl [Example 2]
- EC50 (hMC4-R [1]): 3.1 µM
- % activation functional assay (hMC4-R [1]): 80%
- IC50 (hMC4-R [2]): 0.72 µM
